Laboratory results published in ChEMBL document CHEMBL2150933 (J Med Chem, 2012).
Active and inactive are the calls of the source. The calls are words filed in the database; no cut-off is given here.

Legend:
[1] = Toxicity in iv dosed CD1 mouse administered Q2D for 8 days; format: organism-based; conditions: CD1, mouse, in vivo
[2] = Plasma concentration in CD1 mouse at 1 mg/kg, iv administered as single dose measured after 5 mins; format: ADME, organism-based; design: dose 1 mg/kg, route intravenous
[3] = Plasma concentration in CD1 mouse at 1 mg/kg, iv administered as single dose measured after 30 mins; format: ADME, organism-based; design: dose 1 mg/kg, route intravenous
[4] = Plasma concentration in CD1 mouse at 1 mg/kg, iv administered as single dose measured after 120 mins; format: ADME, organism-based; design: dose 1 mg/kg, route intravenous
SK-MEL-2 [5] = test: Antitumor activity against human SK-MEL-2 cells xenografted in athymic nu/nu Harlan mouse assessed as tumor growth inhibition at 8 mg/kg, ip administered Q4D for 3 days relative to control; format: functional, organism-based; design: dose 8 mg/kg
MDA-MB-468 = test: Cytotoxicity against human MDA-MB-468 cells after 48 hrs by SRB assay; format: functional; conditions: MDA-MB-468, 48 h
[6] = Toxicity in iv dosed CD1 mouse administered as single dose; format: organism-based; conditions: in vivo
EKVX = test: Cytotoxicity against human EKVX cells after 48 hrs by SRB assay; format: functional
HOP-62 = test: Cytotoxicity against human HOP62 cells after 48 hrs by SRB assay; format: functional; conditions: HOP-62, 48 h
A549 [7] = test: Cytotoxicity against human A549 cells after 48 hrs by SRB assay; format: functional; conditions: A549, 48 h, read-out: pGI50 (converted)
RPMI-8226 = test: Cytotoxicity against human RPMI8226 cells after 48 hrs by SRB assay; format: functional; conditions: RPMI-8226, 48 h
SR = test: Cytotoxicity against human SR cells after 48 hrs by SRB assay; format: functional
K562 = test: Cytotoxicity against human K562 cells after 48 hrs by SRB assay; format: functional; conditions: K562, 48 h
MOLT-4 = test: Cytotoxicity against human MOLT4 cells after 48 hrs by SRB assay; format: functional; conditions: MOLT-4, 48 h
CCRF-CEM = test: Cytotoxicity against human CCRF-CEM cells after 48 hrs by SRB assay; format: functional
HL-60 = test: Cytotoxicity against human HL60 cells after 48 hrs by SRB assay; format: functional; conditions: HL-60, 48 h
BXPC-3 = test: Cytotoxicity against human BxPC3 cells after 72 hrs by MTT assay; format: functional; conditions: BXPC-3, 72 h
COLO 205 [8] = test: Cytotoxicity against human COLO205 cells after 72 hrs by MTT assay; format: functional; conditions: COLO 205, 72 h
A549 [9] = test: Cytotoxicity against human A549 cells after 72 hrs by MTT assay; format: functional; conditions: A549, 72 h
HOP-92 = test: Cytotoxicity against human HOP92 cells after 48 hrs by SRB assay; format: functional; conditions: HOP-92, 48 h
NCI-H226 = test: Cytotoxicity against human NCI-H226 cells after 48 hrs by SRB assay; format: functional; conditions: NCI-H226, 48 h
NCI-H23 = test: Cytotoxicity against human NCI-H23 cells after 48 hrs by SRB assay; format: functional; conditions: NCI-H23, 48 h
NCI-H460 = test: Cytotoxicity against human NCI-H460 cells after 48 hrs by SRB assay; format: functional; conditions: NCI-H460, 48 h
NCI-H522 = test: Cytotoxicity against human NCI-H522 cells after 48 hrs by SRB assay; format: functional; conditions: NCI-H522, 48 h
COLO 205 [10] = test: Cytotoxicity against human COLO205 cells after 48 hrs by SRB assay; format: functional; conditions: COLO 205, 48 h
HCC 2998 = test: Cytotoxicity against human HCC2998 cells after 48 hrs by SRB assay; format: functional; conditions: HCC 2998, 48 h
HCT-116 = test: Cytotoxicity against human HCT116 cells after 48 hrs by SRB assay; format: functional; conditions: HCT-116, 48 h
HCT-15 = test: Cytotoxicity against human HCT15 cells after 48 hrs by SRB assay; format: functional; conditions: HCT-15, 48 h
HT-29 = test: Cytotoxicity against human HT-29 cells after 48 hrs by SRB assay; format: functional; conditions: HT-29, 48 h
KM12 = test: Cytotoxicity against human KM12 cells after 48 hrs by SRB assay; format: functional; conditions: KM12, 48 h
SW-620 = test: Cytotoxicity against human SW620 cells after 48 hrs by SRB assay; format: functional; conditions: SW-620, 48 h
SF-268 = test: Cytotoxicity against human SF268 cells after 48 hrs by SRB assay; format: functional; conditions: SF-268, 48 h
SF-295 = test: Cytotoxicity against human SF295 cells after 48 hrs by SRB assay; format: functional; conditions: SF-295, 48 h, read-out: pGI50 (converted)
SF-539 = test: Cytotoxicity against human SF539 cells after 48 hrs by SRB assay; format: functional; conditions: SF-539, 48 h
SNB-19 = test: Cytotoxicity against human SNB19 cells after 48 hrs by SRB assay; format: functional; conditions: SNB-19, 48 h
SNB-75 = test: Cytotoxicity against human SNB75 cells after 48 hrs by SRB assay; format: functional; conditions: SNB-75, 48 h
U-251 = test: Cytotoxicity against human U251 cells after 48 hrs by SRB assay; format: functional; conditions: U-251, 48 h, read-out: pGI50 (converted)
LOX IMVI = test: Cytotoxicity against human LOXIMVI cells after 48 hrs by SRB assay; format: functional
Malme-3M = test: Cytotoxicity against human MALME-3M cells after 48 hrs by SRB assay; format: functional
M14 = test: Cytotoxicity against human M14 cells after 48 hrs by SRB assay; format: functional; conditions: M14, 48 h
MDA-MB-435 = test: Cytotoxicity against human MDA-MB-435 cells after 48 hrs by SRB assay; format: functional; conditions: MDA-MB-435, 48 h
SK-MEL-2 [11] = test: Cytotoxicity against human SK-MEL-2 cells after 48 hrs by SRB assay; format: functional; conditions: SK-MEL-2, 48 h
SK-MEL-28 = test: Cytotoxicity against human SK-MEL-28 cells after 48 hrs by SRB assay; format: functional; conditions: SK-MEL-28, 48 h
SK-MEL-5 = test: Cytotoxicity against human SK-MEL-5 cells after 48 hrs by SRB assay; format: functional; conditions: SK-MEL-5, 48 h, read-out: pGI50 (converted)
UACC-257 = test: Cytotoxicity against human UACC257 cells after 48 hrs by SRB assay; format: functional; conditions: UACC-257, 48 h
UACC-62 = test: Cytotoxicity against human UACC62 cells after 48 hrs by SRB assay; format: functional; conditions: UACC-62, 48 h
IGROV-1 = test: Cytotoxicity against human IGROV1 cells after 48 hrs by SRB assay; format: functional; conditions: IGROV-1, 48 h, read-out: pGI50 (converted)
OVCAR-3 = test: Cytotoxicity against human OVCAR3 cells after 48 hrs by SRB assay; format: functional; conditions: OVCAR-3, 48 h
OVCAR-4 = test: Cytotoxicity against human OVCAR4 cells after 48 hrs by SRB assay; format: functional; conditions: OVCAR-4, 48 h
OVCAR-5 = test: Cytotoxicity against human OVCAR5 cells after 48 hrs by SRB assay; format: functional; conditions: OVCAR-5, 48 h
OVCAR-8 = test: Cytotoxicity against human OVCAR8 cells after 48 hrs by SRB assay; format: functional; conditions: OVCAR-8, 48 h, read-out: pGI50 (converted)
[12] = Cytotoxicity against human NCI-ADR-RES cells after 48 hrs by SRB assay; format: functional
SK-OV-3 = test: Cytotoxicity against human SKOV3 cells after 48 hrs by SRB assay; format: functional; conditions: SK-OV-3, 48 h
[13] = Cytotoxicity against human 786-O cells after 48 hrs by SRB assay; format: functional; conditions: 786-0, 48 h
A498 = test: Cytotoxicity against human A498 cells after 48 hrs by SRB assay; format: functional; conditions: A498, 48 h
ACHN = test: Cytotoxicity against human ACHN cells after 48 hrs by SRB assay; format: functional
CAKI-1 = test: Cytotoxicity against human Caki1 cells after 48 hrs by SRB assay; format: functional; conditions: CAKI-1, 48 h
RXF 393 = test: Cytotoxicity against human RXF393 cells after 48 hrs by SRB assay; format: functional; conditions: RXF 393, 48 h
SN12C = test: Cytotoxicity against human SN12C cells after 48 hrs by SRB assay; format: functional
TK-10 = test: Cytotoxicity against human TK10 cells after 48 hrs by SRB assay; format: functional; conditions: TK-10, 48 h
UO-31 = test: Cytotoxicity against human UO31 cells after 48 hrs by SRB assay; format: functional; conditions: UO-31, 48 h
PC-3 = test: Cytotoxicity against human PC3 cells after 48 hrs by SRB assay; format: functional; conditions: PC-3, 48 h
DU-145 = test: Cytotoxicity against human DU145 cells after 48 hrs by SRB assay; format: functional; conditions: DU-145, 48 h
MCF7 = test: Cytotoxicity against human MCF7 cells after 48 hrs by SRB assay; format: functional; conditions: MCF7, 48 h
MDA-MB-231 = test: Cytotoxicity against human MDA-MB-231 cells after 48 hrs by SRB assay; format: functional; conditions: MDA-MB-231, 48 h
Hs-578T = test: Cytotoxicity against human Hs578T cells after 48 hrs by SRB assay; format: functional
BT-549 = test: Cytotoxicity against human BT549 cells after 48 hrs by SRB assay; format: functional; conditions: BT-549, 48 h
T47D = test: Cytotoxicity against human T47D cells after 48 hrs by SRB assay; format: functional

CO[C@H](C(=O)[C@@H](O)[C@@H](C)O)[C@@H]1Cc2cc3cc(O[C@H]4C[C@@H](O[C@H]5C[C@@H](O)[C@H](O)[C@@H](C)O5)[C@H](O)[C@@H](C)O4)c(C)c(O)c3c(O)c2C(=O)[C@H]1O[C@H]1C[C@@H](O[C@H]2C[C@@H](O[C@H]3C[C@](C)(O)[C@H](O)[C@@H](C)O3)[C@@H](O)[C@@H](C)O2)[C@H](O)[C@@H](C)O1 [PLICAMYCIN]
MTD at 192 h [1]: 0.6 mg/kg
concentration at 5 min [2]: 2700 nM
concentration at 0.5 h [3]: 200 nM
concentration at 2 h [4]: < 100 nM

COc1cccc2c1C(=O)c1c(O)c3c(c(O)c1C2=O)C[C@@](O)(C(=O)CO)C[C@@H]3O[C@H]1C[C@H](N)[C@H](O)[C@H](C)O1
TGI (SK-MEL-2 [5]): Active

CO[C@H](C(=O)C(C)=O)[C@@H]1Cc2cc3cc(O[C@H]4C[C@@H](O[C@H]5C[C@@H](O)[C@H](O)[C@@H](C)O5)[C@H](O)[C@@H](C)O4)c(C)c(O)c3c(O)c2C(=O)[C@H]1O[C@H]1C[C@@H](O[C@H]2C[C@@H](O[C@H]3C[C@H](O)[C@H](O)[C@@H](C)O3)[C@H](O)[C@@H](C)O2)[C@H](O)[C@@H](C)O1
GI50 (MDA-MB-468): 23.4 nM
MTD [6]: 4 mg/kg
GI50 (EKVX): 91.2 nM
GI50 (HOP-62): 16.6 nM
GI50 (A549 [7]): 24.6 nM
GI50 (RPMI-8226): 15.8 nM
GI50 (SR): 11.8 nM
GI50 (K562): 19.5 nM
GI50 (MOLT-4): 27.5 nM
GI50 (CCRF-CEM): 24 nM
GI50 (HL-60): 17.4 nM
GI50 (BXPC-3): 300 nM
GI50 (COLO 205 [8]): 300 nM
GI50 (A549 [9]): 300 nM
GI50 (HOP-92): 19.9 nM
GI50 (NCI-H226): 34.7 nM
GI50 (NCI-H23): 14.8 nM
GI50 (NCI-H460): 17.8 nM
GI50 (NCI-H522): 19.9 nM
GI50 (COLO 205 [10]; read-out: GI50): 32 nM
GI50 (COLO 205 [10]; read-out: pGI50 (converted)): 30.2 nM
GI50 (HCC 2998): 12.9 nM
GI50 (HCT-116): 14.8 nM
GI50 (HCT-15): 182 nM
GI50 (HT-29): 24.6 nM
GI50 (KM12): 12.9 nM
GI50 (SW-620): 24 nM
GI50 (SF-268): 18.6 nM
GI50 (SF-295): 17 nM
GI50 (SF-539): 20.9 nM
GI50 (SNB-19): 17 nM
GI50 (SNB-75): 11 nM
GI50 (U-251): 17.4 nM
GI50 (LOX IMVI): 13.5 nM
GI50 (Malme-3M): 34.7 nM
GI50 (M14): 36.3 nM
GI50 (MDA-MB-435): 25.1 nM
GI50 (SK-MEL-2 [11]): 15.1 nM
GI50 (SK-MEL-28): 20.9 nM
GI50 (SK-MEL-5): 22.4 nM
GI50 (UACC-257): 58.9 nM
GI50 (UACC-62): 13.5 nM
GI50 (IGROV-1): 23.4 nM
GI50 (OVCAR-3): 19.9 nM
GI50 (OVCAR-4): 72.4 nM
GI50 (OVCAR-5): 30.9 nM
GI50 (OVCAR-8): 25.7 nM
GI50 [12]: 1660 nM
GI50 (SK-OV-3): 25.1 nM
GI50 [13]: 25.1 nM
GI50 (A498): 47.9 nM
GI50 (ACHN): 74.1 nM
GI50 (CAKI-1): 126 nM
GI50 (RXF 393): 13.5 nM
GI50 (SN12C): 24.6 nM
GI50 (TK-10): 85.1 nM
GI50 (UO-31): 126 nM
GI50 (PC-3): 22.9 nM
GI50 (DU-145): 25.1 nM
GI50 (MCF7): 19.9 nM
GI50 (MDA-MB-231; read-out: GI50): 63 nM
GI50 (MDA-MB-231; read-out: pGI50 (converted)): 66.1 nM
GI50 (Hs-578T): 16.2 nM
GI50 (BT-549): 13.5 nM
GI50 (T47D): 33.9 nM
